pIC50: −log10 of the molar value.
How the values were obtained:
[1] = system: Mper1-luc Rat-1 (P2C4) fibroblasts; assay: Circadian cell assay (mPer1-luciferase reporter, period prolongation); assay type: cell-based; conditions: effective concentration that induced a 1-hour prolongation of the circadian period, interpolated from hyperbolic curve
Protocol: Experimental Protocols for Circadian Cell Assay
Mper1-luc Rat-1 (P2C4) fibroblast cultures were prepared by dividing the cultures every 3-4 days (approximately 10-20% of confluence) on 150 cm^2 degassed polystyrene tissue culture flasks (Falcon® #35-5001) and maintained in growth medium [EMEM (Cellgro #10-010-CV); 10% fetal bovine serum (FBS; Gibco #16000-044); and 50 I.U./ml of penicillin-streptomycin (Cellgro #30-001-CI)] at 37° C. and under 5% CO2.
Cells obtained from Rat-1 fibroblast cultures at 30-50% of confluence as described above were co-transfected with vectors containing the selection marker for resistance to zeocin for a stable transfection and a luciferase reporter gene controlled by the mPer-1 promoter. After 24 to 48 hours, the cultures were divided on 96-well plates and maintained in growth medium supplemented with 50-100 μg/ml of zeocin (Invitrogen® #45-0430) for 10-14 days. The zeocin-resistant stable transfectants were evaluated for the expression of the reporter by adding 100 μM lucerfin (Promega® #E1603®) to the growth medium and by assaying the luciferase activity on a TopCount® scintillation counter (Packard Model #C384V00). The Rat-1 cell clones expressing both zeocin resistance and lucerifase activity controlled by mPer1 were serum-shock synchronized with 50% horse serum [HS (Gibco® #16050-122)] and the activity of the circadian reporter was evaluated. The P2C4 clone of Mper1-luc Rat-1 fibroblasts was selected to test the compound.
Mper1-luc Rat-1 (P2C4) fibroblasts at 40-50% of confluence, obtained according to the protocol described above, were plated out onto 96-well opaque tissue culture plates (Perkin Elmer® #6005680). The cultures are maintained in growth medium supplemented with 100 μg/ml of zeocin (Invitrogen #45-0430) until they reach 100% of confluence (48-72 h). The cultures were then synchronized with 100 μl of synchronization medium [EMEM (Cellgro #10-010-CV); 100 I.U./ml of penicillin-streptomycin (Cellgro #30-001-C1); 50% HS (Gibco #16050-122)] for 2 hours at 37° C. and under 5% CO2. After synchronization, the cultures were rinsed with 100 μl of EMEM (Cellgro #10-010-CV) for 10 minutes at ambient temperature. […]
The period analysis was performed either by determining the interval between the relative light emission minima over several days or by Fourier transform. […] The data were analyzed by adjusting a hyperbolic curve to the data expressed as change of period (y-axis) as a function of the concentration of the test compound (x-axis) in the XLfit™ software and the CE Delta (t+1 h) was interpolated from this curve.

[2] = molecular target: T1, casein kinase 1 epsilon (CK1 epsilon) (Homo sapiens, UniProt P49674); assay: Filter-plate assay of ATP-33P, inhibition of casein phosphorylation by CK1 epsilon; assay type: biochemical; conditions: casein substrate, ATP 10 μM, 2 hours at ambient temperature
T1 construct: Invitrogen Corporation (named as alternative)
T1 sequence (P49674 whole entry): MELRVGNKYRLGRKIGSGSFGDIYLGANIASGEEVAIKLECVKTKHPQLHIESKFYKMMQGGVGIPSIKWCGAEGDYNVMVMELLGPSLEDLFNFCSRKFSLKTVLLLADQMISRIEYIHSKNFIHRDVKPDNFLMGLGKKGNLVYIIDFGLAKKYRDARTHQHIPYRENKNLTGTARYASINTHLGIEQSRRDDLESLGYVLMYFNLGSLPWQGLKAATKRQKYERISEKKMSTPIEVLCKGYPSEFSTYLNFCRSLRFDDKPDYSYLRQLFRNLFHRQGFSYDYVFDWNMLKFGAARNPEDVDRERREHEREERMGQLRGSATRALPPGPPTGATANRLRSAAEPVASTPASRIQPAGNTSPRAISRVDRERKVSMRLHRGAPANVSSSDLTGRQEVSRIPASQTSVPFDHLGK
Protocol: The capacity of the compounds of the invention to inhibit the phosphorylation of casein by casein kinase 1 epsilon and delta may be evaluated according to the procedure described in US 2005/0131012.
Filter-Plate Assay of ATP-^33P for the Screening of CK1 Epsilon Inhibitors:
The effect of the compounds on inhibition of the phosphorylation of casein by the enzyme casein kinase 1 epsilon (CK1 epsilon) is measured, using a casein assay with filtration of ATP-^33P in vitro.
Casein kinase 1 epsilon (0.58 mg/ml) is obtained via fermentation and purification processes performed according to methods that are well known to those skilled in the art, or may also be obtained from Invitrogen Corporation™ (human CK1 epsilon).
The compounds are tested at five different concentrations so as to generate IC50 values, i.e. the concentration at which a compound is capable of inhibiting the enzymatic activity by 50%, or alternatively the percentage of inhibition at a concentration of 10 micromolar.
“U”-bottomed Falcon plates are prepared by placing 5 μL of solutions of the compounds according to the invention at concentrations of 10, 1, 0.1, 0.01 or 0.001 μM in various wells. The solutions of the compounds according to the invention at these various concentrations are prepared by diluting in a test buffer (50 mM Tris, pH 7.5, […], 2 mM DTT and 1 mM EGTA) a stock solution in DMSO at a concentration of 10 mM. Next, 5 μL of dephosphorylated casein are added to a final concentration of 0.2 μg/μL, 20 μl of CK1 epsilon to a final concentration of 3 ng/μl, and 20 μl of ATP-^33P to a final concentration of 0.02 μCi/μl mixed with cold ATP (10 μM final—approximately 2×10^6 CPM per well). The final total test volume per well is equal to 50 μl.
The “U”-bottomed Falcon® test plate mentioned above is vortexed, and then incubated at ambient temperature for 2 hours. After 2 hours, the reaction is stopped by adding an ice-cold solution of 65 μl of ATP (2 mM) prepared in test buffer.
100 μl of the reaction mixture are then transferred from the “U”-bottomed Falcon® plate into Millipore® MAPH filter plates, preimpregnated with 25 μl of ice-cold 100% TCA. […]
The plates are left to dry overnight at ambient temperature. […] The radiation emitted by each well is then measured for 2 minutes in a Packard® Topcount NXT scintillation counter, in which the values of CPM/well are measured.
The percentage inhibition of the capacity of the enzyme to phosphorylate the substrate (casein) is determined for each concentration of compound tested. These inhibition data expressed as percentages are used to calculate the IC50 value for each compound compared with the controls.
The kinetic studies determined the KM value for ATP as being 21 μM in this test system.

human CK1 delta = molecular target: T2, human CK1 delta (Homo sapiens, UniProt P48730); assay: FRET fluorescence test (Z'Lyte kinase assay Kit), CK1 delta; assay type: biochemical; conditions: peptide substrate SER/THR 11 2 μM, ATP 4 times the KM
T2 construct: purchased Invitrogen Corporation PV3665
T2 sequence (P48730 whole entry): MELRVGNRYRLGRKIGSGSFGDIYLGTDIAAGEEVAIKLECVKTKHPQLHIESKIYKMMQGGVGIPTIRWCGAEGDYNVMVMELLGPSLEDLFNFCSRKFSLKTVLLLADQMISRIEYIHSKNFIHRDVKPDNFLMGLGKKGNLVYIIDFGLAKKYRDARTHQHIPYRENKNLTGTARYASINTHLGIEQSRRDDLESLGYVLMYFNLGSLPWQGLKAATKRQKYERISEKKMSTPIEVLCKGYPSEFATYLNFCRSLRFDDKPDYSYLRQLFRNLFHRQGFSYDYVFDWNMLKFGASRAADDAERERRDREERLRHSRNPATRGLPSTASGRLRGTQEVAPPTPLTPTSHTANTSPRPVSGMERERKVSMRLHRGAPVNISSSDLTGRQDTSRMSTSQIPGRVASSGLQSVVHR
Text: The capacity of the compounds of the invention to inhibit the phosphorylation of casein by casein kinase 1 epsilon and delta may be evaluated using a FRET (“Fluorescence Resonance Energy Transfer) fluorescence test with the aid of the “Z′Lyte™ kinase assay Kit” (reference PV3670; Invitrogen Corporation™) according to the manufacturer's instructions.
The casein kinases 1 used are obtained from Invitrogen Corporation (human CK1 epsilon PV3500 and human CK1 delta PV3665).
A peptide substrate, labeled at both ends with a fluorophore donor group (coumarin) and a fluorophore acceptor group ([…]) constituting a FRET system is phosphorylated in the presence of ATP by casein kinase 1 epsilon or delta in the presence increasing concentrations of compounds of the invention. The mixture is treated with a site-specific protease that specifically cleaves the peptide substrate to form two fluorescent fragments having a large fluorescence emission ratio.
The fluorescence observed is thus related to the capacity of the products of the invention to inhibit the phosphorylation of the peptide substrate by casein kinase 1 epsilon or casein kinase 1 delta.
The compounds of the invention are dissolved at different concentrations starting with a 10 mM stock solution in DMSO diluted in a buffer containing 50 mM HEPS, pH 7.5, 1 m MEGTA, 0.01% Brij-35, 10 mM MgCl for casein kinase 1 epsilon and supplemented with Trizma Base (50 mM), pH 8.0, and NaN3 (0.01% final) for casein kinase 1 delta.
The phosphorylation of the peptide substrate SER/THR 11 obtained from Invitrogen Corporation™ is performed at a final concentration of 2 μM. The ATP concentration is 4 times the KM, this value being 2 μM for casein kinase 1 epsilon and 4 μM for casein kinase 1 delta.
The emitted fluorescence is measured at wavelengths of 445 and 520 nm (excitation at 400 nm).

Row | Structure (SMILES) | pIC50 [2] | melting point | pIC50 (human CK1 delta) | CE Delta (t + 1 h) [1]
1 | Fc1ccc(-c2nc3ccc(N4CCNCC4)nn3c2-c2ccnnc2)cc1 [Compound No. 1, 2-(4-fluorophenyl)-6-(piperazin-1-yl)-3-(pyridazin-4-yl)imidazo[1,2-b]pyridazine] |  |  | 9.00 | 
2 | C[C@@H]1CN(c2ccc3nc(-c4ccc(F)cc4)c(-c4ccnnc4)n3n2)CCN1 [Compound No. 2, 2-(4-fluorophenyl)-6-((R)-3-methylpiperazin-1-yl)-3-(pyridazin-4-yl)imidazo[1,2-b]pyridazine] |  |  |  | 164 nM
3 | CC(C)N1CCN(c2ccc3nc(-c4ccc(F)cc4)c(-c4ccnnc4)n3n2)CC1 [Compound No. 11, 2-(4-fluorophenyl)-6-(4-isopropyl-piperazin-1-yl)-3-(pyridazin-4-yl)imidazo[1,2-b]pyridazine] |  |  | 7.19 to 7.30 | 
4 | CC(C)N1CCN(c2ccc3nc(-c4ccc(F)c(F)c4)c(-c4ccnnc4)n3n2)CC1 [compound 14, 2-(3,4-difluorophenyl)-6-(4-isopropylpiperazin-1-yl)-3-pyridazin-4-yl-imidazo[1,2-b]pyridazine] |  | 192 to 194 °C |  | 62 nM
5 | CC(C)(O)CCN1CCN(c2ccc3nc(-c4ccc(F)cc4)c(-c4ccnnc4)n3n2)CC1 [compound 21, 4-{4-[2-(4-fluorophenyl)-3-pyridazin-4-yl-imidazo[1,2-b]pyridazin-6-yl]piperazin-1-yl}-2-methylbutan-2-ol] | 6.78 to 6.87 | 148 to 150 °C |  | 

The next lines start with results.

Row | pIC50 [2] | melting point | pIC50 (human CK1 delta) | Structure (SMILES) | CE Delta (t + 1 h) [1]
6 | 7.01 | 205 to 212 °C |  | OCC1CN(c2ccc3nc(-c4ccc(F)cc4)c(-c4ccnnc4)n3n2)CCN1 (racemic) [compound 39, (+/−)-{4-[2-(4-fluorophenyl)-3-pyridazin-4-ylimidazo[1,2-b]pyridazin-6-yl]piperazin-2-yl}methanol] | 178 nM
7 | 7.16 to 7.27 |  |  | CC(C)N1CC2CN(c3ccc4nc(-c5ccc(F)cc5)c(-c5ccnnc5)n4n3)CC2C1 (centres unmarked) [compound 28, 2-(4-fluorophenyl)-6-(5-isopropylhexahydropyrrolo[3,4-c]pyrrol-2-(1H)-yl)-3-pyridazin-4-yl-imidazo[1,2-b]pyridazine] | 

Source: patent US8455491B2, “6-cycloamino-3-(pyridazin-4-yl)imidazo[1,2-b]pyridazine and derivatives and pharmaceutical compositions comprising the same” (Sanofi, priority 2007, dated 2013)
